Consider one compound from BindingDB's records for PubMed 32120325 (China Pharmaceutical University, 2020).

The target in assay [1] is T1, Signal transducer and activator of transcription 3 (Homo sapiens, UniProt P40763). The assay is described as follows: Inhibition of IL-6 stimulated STAT3 phosphorylation in human PBMC preincubated with compound for 10 to 15 mins followed by IL-6 stimulation and measured after 15 mins by ELISA analysis. A general note: In an ELISA, binding on a coated surface is turned into a signal by an enzyme label.
T1 sequence (P40763 whole entry): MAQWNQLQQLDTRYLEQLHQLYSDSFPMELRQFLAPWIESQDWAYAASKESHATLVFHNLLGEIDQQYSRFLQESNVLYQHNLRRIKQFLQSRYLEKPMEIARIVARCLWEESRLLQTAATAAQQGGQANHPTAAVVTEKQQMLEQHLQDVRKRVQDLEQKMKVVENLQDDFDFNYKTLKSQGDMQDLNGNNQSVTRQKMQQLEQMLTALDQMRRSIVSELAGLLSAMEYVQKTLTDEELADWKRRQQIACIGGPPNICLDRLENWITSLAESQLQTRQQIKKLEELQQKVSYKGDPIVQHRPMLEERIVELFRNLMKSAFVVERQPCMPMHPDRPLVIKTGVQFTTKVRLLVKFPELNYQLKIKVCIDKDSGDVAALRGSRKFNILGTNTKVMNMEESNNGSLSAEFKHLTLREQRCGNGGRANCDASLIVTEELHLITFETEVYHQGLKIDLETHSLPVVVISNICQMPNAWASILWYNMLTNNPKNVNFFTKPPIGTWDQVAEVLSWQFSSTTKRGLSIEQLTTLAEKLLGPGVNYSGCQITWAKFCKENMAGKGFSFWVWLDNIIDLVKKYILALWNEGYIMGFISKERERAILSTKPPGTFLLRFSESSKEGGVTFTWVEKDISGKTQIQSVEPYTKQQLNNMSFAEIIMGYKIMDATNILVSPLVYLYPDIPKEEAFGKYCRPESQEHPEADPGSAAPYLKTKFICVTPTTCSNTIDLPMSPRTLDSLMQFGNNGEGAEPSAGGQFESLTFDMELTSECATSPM

Assay [2] deals with T1, Signal transducer and activator of transcription 3. The assay is described as follows: Inhibition of IL-23 stimulated STAT3 […] in human naive T cell preincubated with compound for 10 to 15 mins followed by IL-23 stimulation and measured after 15 mins by ELISA analysis.

For `CCS(=O)(=O)N1CC(CC#N)(n2cc(-c3ncnc4[nH]ccc34)cn2)C1` [LY-3009104], the values for the IC50 in assay [1] and in assay [2] were 44 nM and 20 nM, respectively.

By IC50 is commonly meant the concentration that inhibits the measured activity by half.
